Data set [1] deals with Escherichia coli G. Kind of data set: Therapeutic efficacy against experimental infections in the mouse. The class given is in vivo. Conditions: therapy 0.5-1.5-6 hours after infection, read-out: ED50 (cumulative dose).
Data set [2] can be described thus: Pharmacokinetic parameters of prodrug esters. It counts as in vivo. Conditions: mouse; last line of Table 4.
The subject of data set [3] is bacterial β-lactamases. Kind of data set: Stability towards bacterial β-lactamases. It counts as in vitro ADME. As to conditions: compared with the prior-described mixture.
In data set [4] the test system is renal dehydropeptidases. Kind of data set: Stability towards renal dehydropeptidases. The class given is in vitro ADME. As to conditions: compared with the prior-described mixture.
Data set [5] is described as follows: Chemical stability over the whole pH-range. It counts as physicochemical. Conditions: compared with the prior-described mixture.
Data set [6] concerns S. aureus 5635 MR. Kind of data set: In vitro antibacterial activity (MIC). It counts as cell-based. Conditions: Staphylococcus aureus.
For data set [7], the system named is P. rettgeri ATCC 925. In words: In vitro antibacterial activity (MIC). Conditions: Providencia rettgeri, ATCC925. It counts as cell-based.
Data set [8] has as its system S. faecalis 55. In words: In vitro antibacterial activity (MIC). The class given is cell-based. Conditions: Enterococcus faecalis.
The test system of data set [9] is Providencia stuartii Bs 60. Kind of data set: In vitro antibacterial activity (MIC). The class given is cell-based. As to conditions: BS60.
In data set [10] the test system is E. coli B cef. R. In words: In vitro antibacterial activity (MIC). Conditions: Escherichia coli. It counts as cell-based.
For data set [11], the system named is E. aerogenes F46. Kind of data set: In vitro antibacterial activity (MIC). Conditions: Klebsiella aerogenes. The class given is cell-based.
Data set [12] deals with S. epidermidis ATCC 12228. Kind of data set: In vitro antibacterial activity (MIC). It counts as cell-based. As to conditions: Staphylococcus epidermidis, ATCC12228.
Data set [13] relates to Escherichia coli K 12. Kind of data set: In vitro antibacterial activity (MIC). Conditions: K12. It counts as cell-based.
The test system of data set [14] is Streptococcus pyogenes ATCC 12384. In words: In vitro antibacterial activity (MIC). It counts as cell-based. As to conditions: ATCC12384.
Data set [15] relates to Klebsiella aerogenes 1522E. Kind of data set: In vitro antibacterial activity (MIC). It counts as cell-based.
For data set [16], the system named is S. aureus 2 MR. Kind of data set: In vitro antibacterial activity (MIC). Conditions: Staphylococcus aureus. The class given is cell-based.
Data set [17] concerns K. Aerogenes 1082 E cef. R. In words: In vitro antibacterial activity (MIC). It counts as cell-based. Conditions: Klebsiella aerogenes.
In data set [18] the test system is E. cloacae P99 cef. R. Kind of data set: In vitro antibacterial activity (MIC). Conditions: Enterobacter cloacae, P99CEF.R. The class given is cell-based.
Data set [19] deals with P. vulgaris 51. Kind of data set: In vitro antibacterial activity (MIC). It counts as cell-based. As to conditions: Proteus vulgaris.
Data set [20] has as its system E. coli R997 (HSM-1). Kind of data set: In vitro antibacterial activity (MIC). The class given is cell-based. As to conditions: Escherichia coli.
Data set [21] relates to Serratia marcescens ATCC 2902. Kind of data set: In vitro antibacterial activity (MIC). The class given is cell-based. As to conditions: ATCC2902.
Data set [22] deals with S. aureus 2101 MR. Kind of data set: In vitro antibacterial activity (MIC). It counts as cell-based. Conditions: Staphylococcus aureus.
Data set [23] concerns S. faecalis ATCC 6057. Kind of data set: In vitro antibacterial activity (MIC). The class given is cell-based. Conditions: Enterococcus faecalis, ATCC6057.
Data set [24] relates to P. aeruginosa ATCC 19660. Kind of data set: In vitro antibacterial activity (MIC). The class given is cell-based. Conditions: Pseudomonas aeruginosa, ATCC19660.
In data set [25] the test system is Enterobacter cloacae 1321E. Kind of data set: In vitro antibacterial activity (MIC). The class given is cell-based.
The test system of data set [26] is Cirobacter freundii ATCC 8090. In words: In vitro antibacterial activity (MIC). It counts as cell-based.
Data set [27] concerns S. faecium ATCC 8043. In words: In vitro antibacterial activity (MIC). The class given is cell-based. Conditions: Enterococcus faecium, ATCC8043.
Data set [28] relates to A. calcolaceticus N 409. Kind of data set: In vitro antibacterial activity (MIC). It counts as cell-based.
In data set [29] the test system is P. morganii ATCC 25830. Kind of data set: In vitro antibacterial activity (MIC). The class given is cell-based. As to conditions: Morganella morganii, ATCC25830.
The subject of data set [30] is gram-positive and gram-negative bacteria. Kind of data set: Control and treatment of experimental infections in the mouse. It counts as in vivo.
Data set [31] relates to S. salivarius ATCC 9758. Kind of data set: In vitro antibacterial activity (MIC). It counts as cell-based. As to conditions: Streptococcus salivarius, ATCC9758.
For data set [32], the system named is S. aureus 39/2 Pen^+. In words: In vitro antibacterial activity (MIC). It counts as cell-based. Conditions: Staphylococcus aureus.
The test system of data set [33] is Proteus mirabilis FI 7474. In words: In vitro antibacterial activity (MIC). It counts as cell-based. As to conditions: FI7474.
Data set [34] concerns Acinetobacter calcoaceticus Bg 3. Kind of data set: In vitro antibacterial activity (MIC). The class given is cell-based. As to conditions: BG3.
In data set [35] the test system is Staphylococcus aureus Smith. In words: Therapeutic efficacy against experimental infections in the mouse. It counts as in vivo. Conditions: sc, subcutaneous administration, therapy 2 hours after infection, read-out: ED50 (cumulative dose).
Data set [36] deals with Pseudomonas aeruginosa 2598. In words: In vitro antibacterial activity (MIC). The class given is cell-based.
The test system of data set [37] is Shigella flexneri ATCC 11836. Kind of data set: In vitro antibacterial activity (MIC). Conditions: ATCC11836. The class given is cell-based.
The test system of data set [38] is Salmonella typhi ATCC 14028. In words: In vitro antibacterial activity (MIC). It counts as cell-based. As to conditions: Salmonella enterica, read-out: In vitro MIC.
The subject of data set [39] is Staphylococcus aureus Smith. In words: In vitro antibacterial activity (MIC). The class given is cell-based.
Data set [40] concerns C. freundii 4051 cef. R. Kind of data set: In vitro antibacterial activity (MIC). As to conditions: Citrobacter freundii. The class given is cell-based.
Data set [41] relates to E. aerogenes 225. In words: In vitro antibacterial activity (MIC). The class given is cell-based. As to conditions: Klebsiella aerogenes.

The structures appear in SMILES notation. ≈ marks a conversion by molar mass, not a printed value. Like-named read-outs stand apart in the source and are kept apart here. Where only a bound is given, the exact number is not on record here.

Broadly, the ED50 is the dose at which the effect has come halfway, by size or by number of responders. With `COCC1=C(C(=O)OCc2oc(=O)oc2C)N2C(=O)[C@H]([C@@H](C)O)[C@H]2S1` [Compound 20, (5-Methyl-2-Oxo-1,3-Dioxolen-4-yl)Methyl (5R,6S)-6-[1(R)-Hydroxyethyl]-2-Methoxymethyl-Penem-3-Carboxylate], the ED50 in data set [1] (oral administration) worked out at 13.1 mg/kg. Besides, in data set [2], the “[drawing 32] (parameter name shown only as drawing)” value was found to be 7.

With `COCC1=C(C(=O)O)N2C(=O)[C@H]([C@@H](C)O)[C@H]2S1` [compound of formula (I), (5R,6S, 1'R)-configured 6-(1-hydroxyethyl)-2-methoxymethyl-penem-3-carboxylic acid], in data set [3], the “stability towards bacterial β-lactamases” value is “superior stability”. Besides, the “stability towards renal dehydropeptidases” value in [4] is recorded as “superior stability”. In addition, the chemical stability result in data set [5] is “considerably improved chemical stability”.

Take `COCC1=C(C(=O)OCOC(C)=O)N2C(=O)[C@H]([C@@H](C)O)[C@H]2S1` [Compound 1, Acetoxymethyl (5R,6S)-6-[l(R)-Hydroxyethyl]-2-Methoxymethyl-Penem-3-Carboxylate]: in data set [2], the “[drawing 32] (parameter name shown only as drawing)” value turned out to be 7.

The term MIC denotes the lowest concentration that inhibits growth of the organism. For `COCC1=C(C(=O)O)N2C(=O)[C@H]([C@@H](C)O)[C@H]2S1` [5R,6S,1'R isomer], the MIC in data set [6] came out at 0.19 µg/mL (≈ 0.733 µM); in [7] it was 1.56 µg/mL (≈ 6.02 µM); in data set [8], 3.12 µg/mL (≈ 12 µM); in data set [9], 3.12 µg/mL (≈ 12 µM); in data set [10] it was 0.78 µg/mL (≈ 3.01 µM); in [11], 0.78 µg/mL (≈ 3.01 µM). The minimum inhibitory concentration (MIC) in [12] was 0.09 µg/mL (≈ 0.347 µM); in [13] it was 0.39 µg/mL (≈ 1.5 µM); in data set [14] it was 0.022 µg/mL (≈ 0.0848 µM); in data set [15], 0.39 µg/mL (≈ 1.5 µM); in data set [16], 3.12 µg/mL (≈ 12 µM); in data set [17], 0.39 µg/mL (≈ 1.5 µM). Besides, the MIC came out at 0.39 µg/mL (≈ 1.5 µM) in [18]; 0.39 µg/mL (≈ 1.5 µM) in data set [19]; 0.39 µg/mL (≈ 1.5 µM) in [20]; 6.25 µg/mL (≈ 24.1 µM) in [21]; 3.12 µg/mL (≈ 12 µM) in data set [22]; 1.56 µg/mL (≈ 6.02 µM) in data set [23]. In addition, the MIC in [24] was above 25 µg/mL; in data set [25] it was 0.39 µg/mL (≈ 1.5 µM); in [26], 0.39 µg/mL (≈ 1.5 µM); in data set [27], 3.12 µg/mL (≈ 12 µM); in [28], 6.25 µg/mL (≈ 24.1 µM); in data set [29], 1.56 µg/mL (≈ 6.02 µM). Further, the MIC in data set [31] was 0.022 µg/mL (≈ 0.0848 µM); in [32], 0.09 µg/mL (≈ 0.347 µM); in [33], 0.78 µg/mL (≈ 3.01 µM); in [34] it was 1.56 µg/mL (≈ 6.02 µM); in [36] it was above 25 µg/mL; in [37], 0.19 µg/mL (≈ 0.733 µM). Further, the MIC in data set [38] was 0.39 µg/mL (≈ 1.5 µM); in data set [39] it was 0.09 µg/mL (≈ 0.347 µM); in [40], 6.25 µg/mL (≈ 24.1 µM); in [41], 0.78 µg/mL (≈ 3.01 µM). Also, the ED50 worked out at 6.7 mg/kg in data set [1] (sc, subcutaneous administration) and 0.21 mg/kg in data set [35]. For the same compound, in data set [30], the “efficacy in the control and treatment of experimental infections” value is “excellent efficacy”.

On to `CC(=O)OCOC(=O)C1=C(COC(N)=O)S[C@@H]2[C@@H]([C@@H](C)O)C(=O)N12` [FCE 22891, reference compound], for which the “[drawing 32] (parameter name shown only as drawing)” value in data set [2] is given as 6.
